From patent publication US20250034139A1, “AMINE COMPOUNDS HAVING ANTI-INFLAMMATORY, ANTIFUNGAL, ANTIPARASITIC, AND ANTICANCER ACTIVITY” (PHARMA CINQ, LLC, priority 2013, published 2025)
Converted amounts (≈) assume the structure as drawn. Counter-ions that a name gives are not always drawn. Like-named read-outs stand apart in the source and are kept apart here.

What was measured:
[1] = tested on: 4T1 murine breast cancer cells; assay: Example S: in vitro anticancer screen, 4T1 cells, Wst1; format: cell-based, mouse; details: Mus musculus, 4T1, 18 h, 18 hr, Wst1; for viability at 1 µM: read-out: 4T1 1 μM, percent of cancer cell survival relative to vehicle treated cells; for viability at 5 µM: read-out: 4T1 5 μM, percent of cancer cell survival relative to vehicle treated cells
Procedure, shortened: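 Read-out is Wst1 absorbance (450 nm, reference 630 nm) after roughly 2 hr dye incubation, giving percent cell survival versus vehicle. Before that, compounds at 1 μM or 5 μM were applied for 18 hr to 4T1 cells plated at 1×10^4 per well.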

[2] = tested on: Candida albicans strain 3153; assay: Example H: Candida albicans growth inhibition (OD 600 nm); format: cell-based; details: for MIC: Candida albicans, 3153, 24 hrs at 30° C., YPD, XLfit, read-out: MIC (uM) (99% of inhibition of fungal growth); for IC50: Candida albicans, 3153, read-out: IC50 (uM) (50% inhibition of fungal growth), 24 hrs at 30° C., YPD, XLfit
Procedure, shortened: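 Growth inhibition computed as % versus DMSO control from OD600 after ~24 h at 30° C. Inoculum: washed overnight YPD culture of strain 3153 at 3.5×10^4 CFU/ml in YPD; final compound concentrations 0, 5, 10, 16, 22, 30, 40 μM, duplicate wells.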

[3] = tested on: PC3 human prostate cancer cells; assay: Example S: in vitro anticancer screen, PC-3 cells, Wst1; format: cell-based; details: Homo sapiens, PC-3, approximately 20 hours, Wst1, read-out: PC-3, percent of cancer cell survival relative to vehicle treated cells
Procedure, shortened: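 Values give percent survival relative to vehicle, read by Wst1 absorbance (450/630 nm) after 2 h dye incubation, in triplicate. Cells were seeded at 2×10^4/well and treated about 20 h with compound at 0.4, 0.5 or 2.5 μM, depending on compound.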

[4] = tested on: Cryptococcus neoformans (serotype D); assay: Example K: Cryptococcus neoformans (serotype D) growth inhibition; format: cell-based; details: Cryptococcus deneoformans; for IC50: read-out: IC50 (concentration for 50% of inhibition); for MIC: read-out: MIC (concentration for maximum-99% of inhibition)
[5] = OD of 48 hour reading, 37° C., tested 4 to 60 μM, XLfit

## CCCCCCOc1ccc(CNc2ccnc3ccccc23)cc1 [AA, N-[4-(Hexyloxy)benzyl]quinolin-4-amine]
[1]
  viability at 1 µM: 69.1%
  viability at 5 µM: 31.2%
[2]
  MIC: 27.3 µM (≈ 9.13 µg/mL)
  IC50: 11 µM
[3]; 1.5 μM
  viability at 1.5 µM: 82.6%
[4]; [5]
  IC50: 3.34 µM
  MIC: 40.5 µM (≈ 13.6 µg/mL)

## COc1ccc(OCCCCCCCCNc2ncnc3ccccc23)cc1 [AE, N-[8-(4-Methoxyphenoxy)octyl]quinazolin-4-amine]
[2]
  IC50: 7.82 µM
[4]; [5]
  IC50: 0.53 µM
  MIC: 6.99 µM (≈ 2.65 µg/mL)

## c1ccc(Oc2cccc(CNc3ccnc4ccccc34)c2)cc1 [AF, N-(3-Phenoxybenzyl)quinolin-4-amine]
[1]
  viability at 1 µM: 24.7%
  viability at 5 µM: 25.6%
[2]
  MIC: 74.2 µM (≈ 24.2 µg/mL)
  IC50: 45.5 µM
[3]
  viability at 0.4 µM: 19.1%
[4]; [5]
  IC50: 5.18 µM
  MIC: 55.9 µM (≈ 18.2 µg/mL)

## CCCCCCOc1cccc(CNc2ncnc3ccccc23)c1 [AK, N-[3-(Hexyloxy)benzyl]quinazolin-4-amine]
[2]
  IC50: 10.7 µM
[4]; [5]
  IC50: 0.85 µM
  MIC: 24.6 µM (≈ 8.26 µg/mL)

## CCCCOCCCCCCCCCCNc1ccnc2ccccc12 [AM, N-(10-Butoxydecyl)quinolin-4-amine]
[1]
  viability at 1 µM: 24.3%
  viability at 5 µM: 29.5%
[2]
  MIC: 16.2 µM (≈ 5.77 µg/mL)
  IC50: 6.52 µM
[3]
  viability at 0.4 µM: 58.5%
[4]; [5]
  IC50: 3.32 µM
  MIC: 13.3 µM (≈ 4.75 µg/mL)

## CCCCCCOCCCCCCCCn1cnc2cnccc21 [AS, 1-[8-(Hexyloxy)octyl]-1H-imidazo[4,5-c]pyridine]
[1]
  viability at 1 µM: 94.6%
  viability at 5 µM: 23.1%
[2]
  MIC: 37.8 µM (≈ 12.5 µg/mL)
  IC50: 15.3 µM
[3]
  viability at 2.5 µM: 31.1%
[4]; [5]
  IC50: 1.46 µM
  MIC: 26.8 µM (≈ 8.89 µg/mL)

## CCCCOCCCCCCCCCCn1cnc2cnccc21 [AT, 1-(10-Butoxydecyl)-1H-imidazo[4,5-c]pyridine]
[1]
  viability at 1 µM: 31.7%
  viability at 5 µM: 18.7%
[2]
  MIC: 51.2 µM (≈ 17 µg/mL)
  IC50: 14.5 µM
[3]
  viability at 0.4 µM: 34.6%
[4]; [5]
  IC50: 1.29 µM
  MIC: 41.8 µM (≈ 13.9 µg/mL)

## CCCCCCOCCCCCCCCNc1ccncn1 [AU, N-[8-(Hexyloxy)octyl]pyrimidin-4-amine]
[1]
  viability at 1 µM: 93%
  viability at 5 µM: 23.2%
[2]
  MIC: 30.9 µM (≈ 9.52 µg/mL)
  IC50: 16.3 µM
[3]
  viability at 2.5 µM: 32.4%
[4]; [5]
  IC50: 1.63 µM
  MIC: 14.4 µM (≈ 4.42 µg/mL)

## CCCCCCOCCCCCCCCNc1cc(C)nc2ccccc12 [AV, N-[8-(Hexyloxy)octyl]-2-methylquinolin-4-amine]
[1]
  viability at 1 µM: 136%
  viability at 5 µM: 30%
[2]
  MIC: 19.8 µM (≈ 7.34 µg/mL)
  IC50: 13.4 µM
[3]
  viability at 2.5 µM: 38.2%
[4]; [5]
  IC50: 5.12 µM
  MIC: 22.9 µM (≈ 8.47 µg/mL)

## CCCCCCOCCCCCCCCNc1ccnc2cc(Cl)ccc12 [AW, 7-Chloro-N-[8-(hexyloxy)octyl]quinolin-4-amine]
[1]
  viability at 1 µM: 44.2%
  viability at 5 µM: 18%
[2]
  MIC: 24.8 µM (≈ 9.7 µg/mL)
  IC50: 13.3 µM
[3]
  viability at 0.4 µM: 38.2%
[4]; [5]
  IC50: 0.9 µM
  MIC: 8.73 µM (≈ 3.41 µg/mL)

## CCCCCCOc1cccc(OCCCNc2ccnc3ccccc23)c1 [AZ, N-{3-[3-(Hexyloxy)phenoxy]propyl}quinolin-4-amine]
[1]
  viability at 1 µM: 52.2%
  viability at 5 µM: 29.1%
[2]
  MIC: 21.1 µM (≈ 7.99 µg/mL)
  IC50: 10.4 µM
[3]
  viability at 0.4 µM: 95.4%
[4]; [5]
  IC50: 2.01 µM
  MIC: 15.8 µM (≈ 5.99 µg/mL)

## Cc1cccc(OCCCCCCCCNc2ccnc3ccccc23)c1 [BE, N-[8-(m-Tolyloxy)octyl]quinolin-4-amine]
[1]
  viability at 1 µM: 23.1%
  viability at 5 µM: 18.7%
[2]
  MIC: 29.7 µM (≈ 10.8 µg/mL)
  IC50: 12.2 µM
[3]
  viability at 0.4 µM: 99.1%
[4]; [5]
  IC50: 3.45 µM
  MIC: 13.2 µM (≈ 4.77 µg/mL)

## Cc1ccc(OCCCCCCCCNc2ccnc3ccccc23)cc1 [BF, N-[8-(p-Tolyloxy)octyl]quinolin-4-amine]
[1]
  viability at 1 µM: 17.2%
  viability at 5 µM: 19%
[2]
  MIC: 26.9 µM (≈ 9.77 µg/mL)
  IC50: 14.2 µM
[3]
  viability at 0.4 µM: 92.8%

## Cc1ccccc1OCCCCCCCCNc1ccnc2ccccc12 [BG, N-[8-(o-Tolyloxy)octyl]quinolin-4-amine]
[1]
  viability at 1 µM: 17.4%
  viability at 5 µM: 17.8%
[2]
  MIC: 20.9 µM (≈ 7.56 µg/mL)
  IC50: 11.5 µM
[3]
  viability at 0.4 µM: 99.1%
[4]; [5]
  IC50: 2.13 µM
  MIC: 12.5 µM (≈ 4.55 µg/mL)

## Fc1cccc(OCCCCCCCCNc2ccnc3ccccc23)c1 [BI, N-[8-(3-Fluorophenoxy)octyl]quinolin-4-amine]
[1]
  viability at 1 µM: 30%
  viability at 5 µM: 17.3%
[2]
  MIC: 27.8 µM (≈ 10.2 µg/mL)
  IC50: 17.5 µM
[3]
  viability at 0.4 µM: 111%
[4]; [5]
  IC50: 2.23 µM
  MIC: 19.6 µM (≈ 7.17 µg/mL)

## Fc1ccc(OCCCCCCCCNc2ccnc3ccccc23)cc1 [BJ, N-[8-(4-Fluorophenoxy)octyl]quinolin-4-amine]
[1]
  viability at 1 µM: 16.9%
  viability at 5 µM: 31.3%
[2]
  MIC: 23.5 µM (≈ 8.6 µg/mL)
  IC50: 13.3 µM
[3]
  viability at 0.4 µM: 23.9%
[4]; [5]
  IC50: 1.86 µM
  MIC: 18.5 µM (≈ 6.79 µg/mL)

## CCCCCCOc1ccc(CNc2ccnc3ccccc23)cc1F [BK, N-[3-Fluoro-4-(hexyloxy)benzyl]quinolin-4-amine]
[2]
  MIC: 19 µM (≈ 6.71 µg/mL)
  IC50: 11.2 µM
[3]
  viability at 0.4 µM: 29.2%
[4]; [5]
  IC50: 2.44 µM
  MIC: 16.5 µM (≈ 5.82 µg/mL)

## c1ccc(Oc2cccc(CNc3ncnc4ccccc34)c2)cc1 [BM, N-(3-Phenoxybenzyl)quinazolin-4-amine]
[2]
  MIC: 44.5 µM (≈ 14.6 µg/mL)
  IC50: 20.2 µM
[4]; [5]
  IC50: 0.72 µM
  MIC: 22.6 µM (≈ 7.38 µg/mL)

## CCCCCCOCCCCCCCC[n+]1ccc(N)cc1 [BO, 4-Amino-1-[8-(hexyloxy)octyl]pyridinium salts]
[1]
  viability at 1 µM: 20.7%
  viability at 5 µM: 18.6%
[2]
  MIC: 42.5 µM
  IC50: 19 µM
[3]
  viability at 0.4 µM: 13.4%
[4]; [5]
  IC50: 2 µM
  MIC: 13.4 µM

## CCCCCCOc1cccc(CNc2ccnc3ccccc23)c1 [Compound AC, N-[3-(Hexyloxy)benzyl]quinolin-4-amine]
[1]
  viability at 1 µM: 23.3%
  viability at 5 µM: 19.3%
[2]
  MIC: 108 µM (≈ 36 µg/mL)
  IC50: 45.7 µM
[3]
  viability at 0.4 µM: 61.5%
[4]; 48 h
  IC50: 3.35 µM
[4]; [5]
  MIC: 19.4 µM (≈ 6.49 µg/mL)

## CCCCCCCCCCNc1ccnc2ccccc12 [Compound AG, N-(Decyl)quinolin-4-amine]
[2]
  MIC: 16 µM (≈ 4.55 µg/mL)
  IC50: 8.92 µM
[3]
  viability at 2.5 µM: 18.4%
[4]; [5]
  IC50: 1.78 µM
  MIC: 17.6 µM (≈ 4.99 µg/mL)

## CCCCCCCCCCNc1ncnc2ccccc12 [Compound AH, N-(Decyl)quinazolin-4-amine]
[2]
  MIC: 15.4 µM (≈ 4.4 µg/mL)
  IC50: 5.24 µM
[4]; [5]
  IC50: 0.76 µM
  MIC: 9.54 µM (≈ 2.72 µg/mL)

## CCCCCCOCCCCCCCCCCNc1ccnc2ccccc12 [Compound AL, N-[10-(Hexyloxy)decyl]quinolin-4-amine]
[1]
  viability at 1 µM: 16.6%
  viability at 5 µM: 18.3%
[2]
  MIC: 20.1 µM (≈ 7.72 µg/mL)
  IC50: 7.08 µM
[3]
  viability at 0.4 µM: 61.6%
[4]; [5]
  IC50: 1.88 µM
  MIC: 11.5 µM (≈ 4.44 µg/mL)
